According to the NIST ThermoML archive (doi:10.1016/j.tca.2008.05.002):
Numbers after ± are expanded uncertainties.

Assay: Molar enthalpy of transition or fusion
Settings: Adiabatic calorimetry

CCCCn1cc[n+](C)c1.O=[N+]([O-])[O-] [1-butyl-3-methylimidazolium nitrate]
Molar enthalpy of transition or fusion (Crystal 1): 4.3 ± 0.0502 kcal/mol | Molar enthalpy of transition or fusion (Crystal 2): 0.0359 ± 0.0239 kcal/mol | Molar enthalpy of transition or fusion (Crystal 3): 0.086 ± 0.0239 kcal/mol | Molar enthalpy of transition or fusion (Crystal 4): 0.497 ± 0.0239 kcal/mol
